Laboratory results reported in patent US20240218022A1, “ANTI-VISTA MACROCYCLIC PEPTIDES AND COMPOSITIONS” (BRISTOL-MYERS SQUIBB COMPANY, priority 2022, published 2024).
Where two headings read alike, the source gives them in different places. Starred links: 1 amine or outer side, 2 acyl side, 3 side chain; linkers in the order of their positions; H or OH if unused. Positions of bridges follow the written chain, without caps; N, C: chain ends. Non-standard residues stand in square brackets, D forms with d. Residues, ends and D or L forms follow the SMILES beside them. ξ: configuration not given here. N(3-phenylpropyl)Gly = O=C(O)CNCCCc1ccccc1; Phe(2,4-F2) = N[C@@H](Cc1ccc(F)cc1F)C(=O)O; 2Nal = N[C@@H](Cc1ccc2ccccc2c1)C(=O)O; βAsp = O=C(O)[C@H](CC(=O)[*:2])N[*:1]; NMeThr(3ξ) = CN[C@H](C(=O)O)C(C)O; Tic = O=C(O)[C@@H]1Cc2ccccc2CN1; Cit = NC(=O)NCCC[C@H](N)C(=O)O; Ahp(2) = CCCCC[C@H](N)C(=O)O; NMeNle = CCCC[C@H](NC)C(=O)O; Tle = CC(C)(C)[C@H](N)C(=O)O; Pip = O=C(O)[C@@H]1CCCCN1; NHexGly = CCCCCCNCC(=O)O; Nle = CCCC[C@H](N)C(=O)O; Orn = NCCC[C@H](N)C(=O)O; Aun = NCCCCCCCCCCC(=O)O; Dab = NCC[C@H](N)C(=O)O; Nva = CCC[C@H](N)C(=O)O; AEEA = NCCOCCOCC(=O)O

Molecular target: T1, mouse VISTA (mVISTA) (Mus musculus, UniProt Q9D659)
T1 construct: expressed in transfected cells; host or cells: Human embryonic kidney 293T cells
T1 sequence (Q9D659 33-308): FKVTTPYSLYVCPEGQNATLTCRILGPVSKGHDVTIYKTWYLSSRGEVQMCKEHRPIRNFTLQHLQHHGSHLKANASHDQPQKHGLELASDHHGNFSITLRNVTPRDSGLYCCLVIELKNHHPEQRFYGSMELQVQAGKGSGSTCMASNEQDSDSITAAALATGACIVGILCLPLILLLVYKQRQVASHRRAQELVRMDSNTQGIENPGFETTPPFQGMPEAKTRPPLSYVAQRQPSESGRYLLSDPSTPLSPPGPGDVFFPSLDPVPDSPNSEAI
Assay: Cell-Based Binding High-Content Assay For mVISTA (HC CBA mVISTA)
How it was run: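 Read-out: Alexa 647–streptavidin signal imaged on fixed, Hoechst-stained mVISTA-293T cells, with IC50 taken from a four-parameter logistic curve. Compounds competed with 2 nM biotinylated peptide for 30 min at room temperature, tested under both no-wash and wash (1 h compound, media exchange, 1 h) formats.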

[1] = cell-based binding high-content assay, mVISTA, the 16th table, read-out: HC CBA mVISTA IC50
[2] = cell-based binding high-content assay, mVISTA, read-out: HC CBA miPr ISTA IC50
[3] = 293T cells expressing mouse VISTA, competition with biotinylated peptide (2 nM), read-out: HC CBA mVISTA IC50

Compound | IC50 (read-out: HC CBA mVISTA IC50) | further results
CCCCCCN1CC(=O)N[C@@H](Cc2ccc(O)cc2)C(=O)N[C@@H](CCCCN)C(=O)NCC(=O)N[C@@H](CCCN)C(=O)N[C@@H](CC(C)C)C(=O)N[C@@H](CCCCC)C(=O)N2CCC[C@H]2C(=O)N[C@@H](C(C)C)C(=O)N[C@@H](CO)C(=O)N[C@H](C(=O)NCC(=O)O)CSCC(=O)N[C@@H](Cc2ccc3ccccc3c2)C(=O)N[C@@H](Cc2ccc(O)cc2)C(=O)N[C@@H](CC(=O)O)C1=O [Ex 1288] ({CH2CO}-[2Nal]YD[NHexGly]YKG[Orn]L[Ahp(2)]PVSCG-OH; thioether N-14) |  | IC50 [1]: 16.7 nM
CCCCCCN1CC(=O)N[C@@H](Cc2ccc(O)cc2)C(=O)N[C@@H](CC(C)C)C(=O)N[C@@H](CC(N)=O)C(=O)N[C@@H](CCCNC(=N)N)C(=O)N(C)[C@@H](CCCC)C(=O)N[C@@H](CCCCC)C(=O)N2CCC[C@H]2C(=O)N[C@@H](C(C)(C)C)C(=O)N[C@@H](CC(=O)O)C(=O)N[C@H](C(=O)N[C@@H](CC(=O)NCCOCCOCC(=O)N[C@@H](CC(=O)O)C(=O)NCCOCCOCC(=O)NCCCCCCCCCCC(=O)O)C(=O)O)CSCC(=O)N[C@@H](Cc2ccccc2)C(=O)N[C@@H](Cc2c[nH]c3ccccc23)C(=O)N[C@@H](CC(=O)O)C1=O [compound 2027] ({CH2CO}-FWD[NHexGly]YLNR[NMeNle][Ahp(2)]P[Tle]DC[βAsp][AEEA]D[AEEA][Aun]-OH; thioether N-14) |  | IC50 [2]: 27.5 nM
CCCCCCN1CC(=O)N[C@@H](Cc2ccc(O)cc2)C(=O)N[C@@H](CCCCC)C(=O)N[C@@H](CC(N)=O)C(=O)N[C@@H](CCCNC(=N)N)C(=O)N(C)[C@@H](CCCC)C(=O)N[C@@H](CCCCC)C(=O)N2CCC[C@H]2C(=O)N[C@@H](C(C)C)C(=O)N[C@@H](CC(=O)O)C(=O)N[C@H](C(=O)NCC(=O)O)CSCC(=O)N[C@@H](Cc2ccc(F)cc2F)C(=O)N[C@@H](Cc2ccc(F)cc2F)C(=O)N[C@@H](CC(=O)O)C1=O [compound 1216] ({CH2CO}-[Phe(2,4-F2)][Phe(2,4-F2)]D[NHexGly]Y[Ahp(2)]NR[NMeNle][Ahp(2)]PVDCG-OH; thioether N-14) | 12.9 nM | 
CCCCCCN1CC(=O)N[C@@H](Cc2ccc(O)cc2)C(=O)N[C@@H](CCCC)C(=O)N[C@@H](CC(=O)O)C(=O)N[C@@H](CCCNC(=N)N)C(=O)N(C)[C@@H](CCCC)C(=O)N[C@@H](CCCCC)C(=O)N2CCC[C@H]2C(=O)N[C@@H](C(C)(C)C)C(=O)N[C@@H](CO)C(=O)N[C@H](C(=O)NCC(N)=O)CSCC(=O)N[C@@H](Cc2ccccc2)C(=O)N[C@@H](Cc2c[nH]c3ccccc23)C(=O)N[C@@H](CC(=O)O)C1=O [Example 1395] ({CH2CO}-FWD[NHexGly]Y[Nle]DR[NMeNle][Ahp(2)]P[Tle]SCG-NH2; thioether N-14) | 48.6 nM | 
CCCCCCN1CC(=O)N[C@@H](Cc2ccc(O)cc2)C(=O)N[C@@H](CC(C)C)C(=O)N[C@@H](CC(N)=O)C(=O)N[C@@H](CCCNC(=N)N)C(=O)N(C)[C@@H](CCCC)C(=O)N[C@@H](CCCCC)C(=O)N2CCC[C@H]2C(=O)N[C@@H](C(C)(C)C)C(=O)N[C@@H](CC(=O)O)C(=O)N[C@H](C(=O)N[C@@H](CCN)C(=O)NCCOCCOCC(=O)N[C@@H](CC(=O)O)C(=O)NCCOCCOCC(=O)NCCCCCCCCCCC(=O)O)CSCC(=O)N[C@@H](Cc2ccccc2)C(=O)N[C@@H](Cc2ccc(O)cc2)C(=O)N[C@@H](CC(=O)O)C1=O [compound 2085] ({CH2CO}-FYD[NHexGly]YLNR[NMeNle][Ahp(2)]P[Tle]DC[Dab][AEEA]D[AEEA][Aun]-OH; thioether N-14) |  | IC50 (cell-based binding high-content assay, mVISTA, read-out: HC CBA miPrISTA IC50): 41.7 nM
CCCCCCN1CC(=O)N[C@@H](Cc2ccc(O)cc2)C(=O)N[C@@H](CCCC)C(=O)N[C@@H](CC(=O)O)C(=O)N[C@@H](CCCNC(=N)N)C(=O)N[C@@H](CC(C)C)C(=O)N[C@@H](CCCCC)C(=O)N2CCC[C@H]2C(=O)N[C@@H](C(C)C)C(=O)N[C@@H](CC(=O)O)C(=O)N[C@H](C(=O)N[C@@H](CC(=O)O)C(N)=O)CSCC(=O)N[C@@H](Cc2ccccc2)C(=O)N[C@@H](Cc2c[nH]c3ccccc23)C(=O)N[C@@H](CC(=O)O)C1=O [Example 1352] ({CH2CO}-FWD[NHexGly]Y[Nle]DRL[Ahp(2)]PVDCD-NH2; thioether N-14) | 12.3 nM | 
CCCCCCN1CC(=O)N[C@@H](Cc2ccc(O)cc2)C(=O)N[C@@H](CCCC)C(=O)N[C@@H](CC(N)=O)C(=O)N[C@@H](CCCNC(=N)N)C(=O)N2Cc3ccccc3C[C@H]2C(=O)N[C@@H](CCCCC)C(=O)N2CCC[C@H]2C(=O)N[C@@H](C(C)C)C(=O)N[C@@H](CO)C(=O)N[C@H](C(=O)NCC(N)=O)CSCC(=O)N[C@@H](Cc2ccccc2)C(=O)N[C@@H](Cc2c[nH]c3ccccc23)C(=O)N[C@@H](CC(=O)O)C1=O [Example 1415] ({CH2CO}-FWD[NHexGly]Y[Nle]NR[Tic][Ahp(2)]PVSCG-NH2; thioether N-14) | 18.1 nM | 
CCCCCCN1CC(=O)N[C@@H](Cc2ccc(O)cc2)C(=O)N[C@@H](CCC)C(=O)N[C@@H](CC(N)=O)C(=O)N[C@@H](CCCNC(=N)N)C(=O)N[C@@H](CC(C)C)C(=O)N[C@@H](CCCCC)C(=O)N2CCC[C@H]2C(=O)N[C@@H](C(C)C)C(=O)N2CCC[C@H]2C(=O)N[C@H](C(=O)NCC(=O)O)CSCC(=O)N[C@@H](Cc2ccccc2)C(=O)N[C@@H](Cc2ccc(O)cc2)C(=O)N[C@@H](CC(=O)O)C1=O [compound 1120] ({CH2CO}-FYD[NHexGly]Y[Nva]NRL[Ahp(2)]PVPCG-OH; thioether N-14) | 2.6 nM | 
CCCCCCN1CC(=O)N[C@@H](Cc2ccc(O)cc2)C(=O)N[C@@H](CCCCC)C(=O)N[C@@H](CC(N)=O)C(=O)N[C@@H](CCCNC(=N)N)C(=O)N[C@@H](CC(C)C)C(=O)N[C@@H](CCCCC)C(=O)N2CCC[C@H]2C(=O)N[C@@H](C(C)C)C(=O)N[C@@H](CO)C(=O)N[C@H](C(=O)NCC(=O)O)CSCC(=O)N[C@@H](Cc2ccccc2)C(=O)N[C@@H](Cc2ccc(O)cc2)C(=O)N[C@@H](CC(=O)O)C1=O [Example 1034] ({CH2CO}-FYD[NHexGly]Y[Ahp(2)]NRL[Ahp(2)]PVSCG-OH; thioether N-14) |  | IC50 [3]: 3.7 nM
CCCCCCN1CC(=O)N[C@@H](Cc2ccc(O)cc2)C(=O)N[C@@H](CCCC)C(=O)N[C@@H](CC(N)=O)C(=O)N[C@@H](CCCNC(N)=O)C(=O)N(C)[C@@H](CCCC)C(=O)N[C@@H](CCCCC)C(=O)N2CCCC[C@H]2C(=O)N[C@@H](C(C)C)C(=O)N[C@@H](CO)C(=O)N[C@H](C(=O)NCC(N)=O)CSCC(=O)N[C@@H](Cc2ccccc2)C(=O)N[C@@H](Cc2c[nH]c3ccccc23)C(=O)N[C@@H](CC(=O)O)C1=O [compound 1146] ({CH2CO}-FWD[NHexGly]Y[Nle]N[Cit][NMeNle][Ahp(2)][Pip]VSCG-NH2; thioether N-14) | 21.7 nM | 
CCCCC[C@@H]1NC(=O)[C@H](CCCC)N(C)C(=O)[C@H](CCCNC(=N)N)NC(=O)[C@H](CC(N)=O)NC(=O)[C@H](CC(C)C)NC(=O)[C@H](Cc2ccc(O)cc2)NC(=O)CN(CCCc2ccccc2)C(=O)[C@H](CC(=O)O)NC(=O)[C@H](Cc2ccc(O)cc2)NC(=O)[C@H](Cc2ccccc2)NC(=O)CSC[C@@H](C(=O)NCC(N)=O)NC(=O)[C@H](CO)NC(=O)[C@H](C(C)(C)C)NC(=O)[C@@H]2CCCN2C1=O [Example 1087] ({CH2CO}-FYD[N(3-phenylpropyl)Gly]YLNR[NMeNle][Ahp(2)]P[Tle]SCG-NH2; thioether N-14) |  | IC50 [3]: 34.7 nM
CCCCCCN1CC(=O)N[C@@H](Cc2ccc(O)cc2)C(=O)N[C@@H](CCCC)C(=O)N[C@@H](CC(N)=O)C(=O)N[C@@H](CCCNC(N)=O)C(=O)N[C@@H](CC(C)C)C(=O)N[C@@H](CCCCC)C(=O)N2CCC[C@H]2C(=O)N[C@@H](C(C)C)C(=O)N[C@@H](CC(=O)O)C(=O)N[C@H](C(=O)NCC(=O)O)CSCC(=O)N[C@@H](Cc2ccc3ccccc3c2)C(=O)N[C@@H](Cc2ccc(O)cc2)C(=O)N[C@@H](CC(=O)O)C1=O [Ex 1300] ({CH2CO}-[2Nal]YD[NHexGly]Y[Nle]N[Cit]L[Ahp(2)]PVDCG-OH; thioether N-14) |  | IC50 [1]: 4.9 nM
CCCCCCN1CC(=O)N[C@@H](Cc2ccc(O)cc2)C(=O)N[C@@H](CCCC)C(=O)N[C@@H](CC(N)=O)C(=O)N[C@@H](CCCNC(=N)N)C(=O)N(C)[C@@H](CCCC)C(=O)N[C@@H](CCCCC)C(=O)N2CCC[C@H]2C(=O)N[C@@H](C(C)(C)C)C(=O)N[C@@H](CC(=O)O)C(=O)N[C@H](C(=O)N[C@@H](CC(N)=O)C(=O)O)CSCC(=O)N[C@@H](Cc2ccccc2)C(=O)N[C@@H](Cc2c[nH]c3ccccc23)C(=O)N[C@@H](CC(=O)O)C1=O [Example 1398] ({CH2CO}-FWD[NHexGly]Y[Nle]NR[NMeNle][Ahp(2)]P[Tle]DCN-OH; thioether N-14) | 43.9 nM | 
CCCCCCN1CC(=O)N[C@@H](Cc2ccc(O)cc2)C(=O)N[C@@H](CC(C)C)C(=O)N[C@@H](CC(N)=O)C(=O)N[C@@H](CCCNC(=N)N)C(=O)N(C)[C@@H](C(C)O)C(=O)N[C@@H](CCCCC)C(=O)N2CCC[C@H]2C(=O)N[C@@H](C(C)(C)C)C(=O)N[C@@H](CO)C(=O)N[C@H](C(=O)N[C@@H](CC(=O)NCCOCCOCC(=O)N[C@@H](CC(=O)O)C(=O)NCCOCCOCC(=O)NCCCCCCCCCCC(=O)O)C(=O)O)CSCC(=O)N[C@@H](Cc2ccccc2)C(=O)N[C@@H](Cc2ccc(O)cc2)C(=O)N[C@@H](CC(=O)O)C1=O (some centres unmarked) [compound 2036] ({CH2CO}-FYD[NHexGly]YLNR[NMeThr(3ξ)][Ahp(2)]P[Tle]SC[βAsp][AEEA]D[AEEA][Aun]-OH; thioether N-14) |  | IC50 [2]: 49 nM
